# “Also recorded” adds a separate entry of the source. Like-named read-outs stand apart in the source and are kept apart here.
# Columns and labels:
# serotonin = conditions: six consecutive doses, cited from earlier work
# EL4 cells = experiment: Injection of EL4 cells pre-treated with LP-533401 or serotonin into syngeneic mice (Example 13); type: in vivo; conditions: cells treated before injection; LP-533401 0.1 to 1-fold serum concentration, serotonin 25 to 100 μM
# Procedure: (§1) EL4 cells and WEH-3B cells, as described in Example 2, were treated with either LP-533401 or serotonin LP-533401 treatments were performed at 0.1 to 1-fold the amount equivalent to the LP-533401 serum concentration in mice treated with this compound. Serotonin was given at concentrations ranging from 25 to 100 μM, doses at which it affects the proliferation of cells expressing serotonin receptors (Kode et al. (2012); Yadav et al. (2008) Serafeim et al. (2003)).
# EL4 cells treated with LP-533401 or serotonin were then injected into syngeneic mice as described in Example 2 to monitor leukemia engraftment, as commonly described for evaluating potential direct effects of compounds on leukemia cells (Moellering et al. (2009)).
# [1] = test system: myeloid or the lymphoblastic leukemia cells; experiment: Serotonin treatment of leukemia cells, proliferation or survival; type: cell-based
# Procedure: as §1
Structure (SMILES),serotonin levels in the small intestine lowered (serotonin; 30 mg/kg twice per day) [%],serotonin levels in the small intestine lowered (serotonin; 90 mg/kg twice per day) [%],brain-derived serotonin (serotonin; 30 or 90 mg/kg twice per day),leukemia outcome (burden and lethality) after injection of pre-treated EL4 cells (EL4 cells),proliferation or survival of leukemia cells [1]
CCOC(=O)[C@@H](N)Cc1ccc(-c2cc(OC(c3ccc(-c4cccc(F)c4)cc3)C(F)(F)F)nc(N)n2)cc1 (some centres unmarked) [LP-615819],55,70,unchanged,–,–
"NCCc1c[nH]c2ccc(O)cc12 [serotonin, 5-hydroxytryptamine]",–,–,–,neither implantation of serotonin-treated leukemia cells affected leukemia progression; also recorded: neither of the two treatments altered leukemia outcome,no effect
